Results: paper PMC7716246 (ACS chemical neuroscience, 2020)
Read-outs that look alike come from different tables or passages of the source.

Experiments:
Aβ42 fibrils [1] = biological target: T1, Aβ42 fibrils (Homo sapiens, UniProt P05067); assay: Disaggregation of preformed Aβ42 fibrils, ThT fluorescence; type: biochemical; conditions: in the absence and presence of Cu^2+; [Aβ] = [M^2+] = [AMF] = 25 μM, additional 24 h at 37 °C
[2] = Cu^2+-induced ascorbate consumption assay; type: biochemical; conditions: [Cu^2+] = 10 μM, [AMF] = 24 μM, [ascorbate] = 100 μM
Aβ fibrils (Aβ40) = Aβ fibrils (Aβ40) (Homo sapiens, UniProt P05067); assay: Thioflavin T; type: binding
Chain of Aβ fibrils (Aβ40) (P05067 672-711 limits assumed): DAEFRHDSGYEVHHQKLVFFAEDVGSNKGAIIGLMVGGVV

[3] = UV-vis Cu^2+ binding and Job's plot analysis of AMF:Cu^2+ stoichiometry; type: physicochemical
amyloid plaques = type: binding, 5xFAD transgenic mice; conditions: brain sections of 7 month old 5xFAD mice
Aβ42 fibrils [4] = biological target: T1, Aβ42 fibrils; type: biochemical; conditions: 25 μM, 37 °C; for Disaggregation of Aβ42 aggregates (TEM, native gel/Western blot): 24 h then 24 h with AMF
[5] = 2:1 Metal:AMF mixture, [M^2+]tot = 25 μM, [AMF]tot = 50 μM
[6] = pH 7.4; 2:1 Metal:AMF mixture, [M^2+]tot = 25 μM, [AMF]tot = 50 μM
Aβ42 peptide [7] = biological target: T2, Aβ42 peptide (Homo sapiens, UniProt P05067); assay: Inhibition of Aβ42 aggregation, ThT fluorescence; type: biochemical; conditions: in presence and absence of Cu^2+ or Zn^2+; [Aβ] = [M^2+] = [AMF] = 25 μM, 37 °C, 24 h
T2 sequence (P05067 672-713 limits assumed): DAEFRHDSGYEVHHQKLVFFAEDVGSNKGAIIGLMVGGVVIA

Aβ42 peptide [8] = biological target: T2, Aβ42 peptide; assay: Inhibition of Aβ42 aggregation, TEM and native gel electrophoresis/Western blot; type: biochemical; conditions: 37 °C, 24 h; for Aβ42 aggregates observed by TEM: [Aβ42] = [M^2+] = [AMF] = 25 μM; for Aβ42 aggregates by native gel/Western blot: 25 μM

T1 sequence (P05067 672-713 limits assumed): as above

Structure (SMILES): O=c1cc(-c2ccc(O)c(-c3c(O)cc(O)c4c(=O)cc(-c5ccc(O)cc5)oc34)c2)oc2cc(O)cc(O)c12 [AMF, amentoflavone]
- Disaggregation of preformed Aβ42 fibrils (ThT fluorescence) (Aβ42 fibrils [1]): efficient at reducing the amount of Aβ42 fibrils
- Effect on ascorbate consumption ([2]; AMF added to the Cu^2+-Aβ42-ascorbate solution, [Aβ42] = 12 μM): efficiently reduce the consumption of ascorbate
- Effect on ascorbate consumption ([2]; premixed AMF-Cu^2+ complex, with monomeric Aβ42 12 μM): significant inhibition of the ascorbate consumption
- Ki (Aβ fibrils (Aβ40)): 0.287 ± 0.02 µM
- Break in Job's plot ([3]; AMF and Cu^2+ in EtOH-PBS (1:10)): 0.7 mole fraction of Cu
- Cu bound per AMF (stoichiometry) ([3]; from Job's plot): at least 2 equiv
- Fluorescence intensity of stained brain sections (amyloid plaques; 25 μM): strong fluorescent intensity
- Pearson's correlation coefficient, colocalization with HJ3.4 immunofluorescence (amyloid plaques; [AMF] = [Cu^2+] = 25 μM, [HJ3.4] = 1 μg/mL): 0.65
- Disaggregation of Aβ42 aggregates (TEM, native gel/Western blot) (Aβ42 fibrils [4]; Cu^2+-incubated Aβ42 aggregates): reduction in the amount of both large aggregates and smaller Aβ42 oligomers
- Disaggregation of Aβ42 aggregates (TEM, native gel/Western blot) (Aβ42 fibrils [4]; Zn^2+-incubated Aβ42 amorphous aggregates): decreases to some extent
- Disaggregation of Aβ42 fibrils (TEM, native gel/Western blot) (Aβ42 fibrils [4]; no metal ions, 24 h fibrilization then 24 h with AMF): disaggregates the Aβ42 fibrils efficiently
- pCu (pM = −log[M]free) ([5]; pH 6.6): 9.62
- pCu (pM = −log[M]free) ([5]; pH 7.4): 10.44
- pZn (pM = −log[M]free) [6]: 8.15
- Effect on Aβ42 fibrillization (ThT fluorescence) (Aβ42 peptide [7]): dramatically reduced the fibrillization of Aβ42
- Aβ42 aggregates observed by TEM (Aβ42 peptide [8]; in the absence and presence of Cu^2+): only small amorphous aggregates were observed
- Aβ42 aggregates by native gel/Western blot (Aβ42 peptide [8]; in the presence of Cu^2+): the amount of soluble Aβ42 oligomers is also reduced
- Aβ42 aggregates by native gel/Western blot (Aβ42 peptide [8]; in the presence of Zn^2+): a wide range of various-size aggregates is formed
- Aβ42 aggregates observed by TEM (Aβ42 peptide [8]; in the presence of Zn^2+): a range of amorphous and fibrillar aggregates is formed
- Aβ42 aggregates by native gel/Western blot (Aβ42 peptide [8]; no metal ions): dramatically reduces the amount of large Aβ42 aggregates
